In PMC8042770, “Odorant Receptors for Detecting Flowering Plant Cues Are Functionally Conserved across Moths and Butterflies” (Molecular Biology and Evolution, 2020):
“Also recorded” adds a separate entry of the source.

What was measured:
[1] = tested on: H. armigera moth antennae; assay: Electroantennography (EAG), wild-type vs HarmOR42 knock-out moths; type: in vivo, Helicoverpa armigera; conditions: single odorants, 1 μg
Text: We next conducted a loss-of-function study by generating a HarmOR42-lacking H. armigera strain by CRISPR/Cas9 targeting the first coding exon. Homozygous mutants were obtained with a large segment deletion of 203 bp and a 6-bp nonhomologous insertion in the genome (fig. 6B), introducing a premature stop codon in the coding sequence. […] The most likely hypothesis is that HarmOR42 is not the major receptor for sensing this compound in H. armigera. As a control, we tested the response of male moths to the sex pheromone component Z11-16: Ald that is not a ligand of HarmOR42. As expected, we observed no difference between the EAG responses of mutant and wild-type moths to this compound.
The antennae of 2- to 3-day-old virgin male and female moths were cut at the base of the flagellum. After removing the tip, one antenna was inserted between two glass electrodes filled with 0.1 M KCl solution. In each test, a 10-μl solution of each odorant was added onto a piece of filter paper (0.5 cm × 0.5 cm) and then inserted into a Pasteur pipette. About 100 ng/μl stock solutions of individual odorants and different doses of the mixture IAC were prepared with paraffin oil. A continuous airflow of 30 ml/s was produced by a stimulus controller (CS-55, Syntech, Kirchzarten, Germany). Odor stimulation was controlled by a puff of purified air (0.2 s at 10 ml/s airflow) from the CS-55. EAG signals were amplified with a 10× AC/DC headstage preamplifier (Syntech) and further acquired with an Intelligent Data Acquisition Controller (IDAC-4-USB, Syntech) ([Cao et al. 2016]). The signals were recorded, monitored, and analyzed using Syntech EAG-software (Syntech, Germany). The EAG response values for each compound were calculated by subtracting the value of the same antennae corresponding to a solvent blank of paraffin oil.

[2] = tested on: HarmOR42 orthologs from 11 lepidopteran species; assay: Xenopus oocyte voltage clamp of HarmOR42 orthologs, six-odorant screen; type: cell-based; conditions: six compounds at 10^−4 M; 11 species
Text: We gathered additional experimental evidence to support this conservation of a PAA-sensing function by performing in vitro functional characterization of HarmOR42 orthologs from 11 lepidopteran species belonging to eight families (fig. 5B). […] It should be noted that the species studied here included three Noctuidae species (H. armigera, H. assulta, and Mythimna separata), four moths from Bombycidae (Bombyx mori), Crambidae (Chilo suppressalis), Sphingidae (Manduca sexta), and Tortricidae (Grapholitha molesta) ([Mitter et al. 2017]; [Kawahara et al. 2019]), and four diurnal butterfly species from diverse families (Vanessa tameamea, Papilio xuthus, Danaus plexippus, and Pieris rapae) (fig. 5B). […]
(§1) Functional characterization of individual ORs was performed by heterologous expression in Xenopus oocytes combined with a two-electrode voltage-clamp system ([Wang et al. 2010]). […] After incubation in nutrient solution at 18 °C for 3–5 days, the response profile of each oocyte to multiple plant odorants was recorded via a two-electrode voltage clamp (OC-725C oocyte clamp, Warner Instruments, Hamden, CT) at a holding potential of −80 mV. Data were acquired by using a Digidata 1440 A and were analyzed by pCLAMP 10.2 software (Axon Instruments Inc., Union City, CA). […]

HarmOR59 = HarmOR59 (Helicoverpa armigera, UniProt A0A7T3KAU6); assay: Xenopus oocyte two-electrode voltage clamp, HarmOR59 + Orco; type: cell-based
Protocol: (§2) In order to expand our analysis on the response properties of HarmORs, we conducted dose–response analyses for the 28 functional HarmORs. […] Six HarmORs (OR3, 22, 48, 50, 56, and 66) could not be activated by any ligand at 10^−5 M. For the other 22 HarmORs, dose–response curves were generated and EC50 values of their major ligands were calculated (fig. 2A and supplementary table S2, Supplementary Material online). The HarmOR repertoire was highly efficient in terpene detection, since the lowest EC50 values were obtained for such compounds. Many of these terpenes have been proposed to be defensive chemicals of plants. […] DMNT is also one of the oviposition deterring compounds found in larval frass of some Lepidoptera species such as S. littoralis ([Anderson et al. 1993]).
(§3) Functional characterization of individual ORs was performed by heterologous expression in Xenopus oocytes combined with a two-electrode voltage-clamp system ([Wang et al. 2010]). Briefly, the full-length gene of each OR and Orco were subcloned into the eukaryotic expression vector pT7TS. cRNAs were generated from linearized expression vectors using the mMESSAGE mMACHINE T7 kit (Ambion, Austin, TX). Then, the cRNA mixture of ORx and Orco (27.6 ng each) was injected (Nanoliter 2010, WPI Inc., Sarasota, FL) into oocytes (stage V–VII). The respective Orcos of different species were used for functional studies of OR42 orthologs except for the four butterfly species (V. tameamea, P. xuthus, D. plexippus, and P. rapae), in which we used the Orco from P. xuthus. After incubation in nutrient solution at 18 °C for 3–5 days, the response profile of each oocyte to multiple plant odorants was recorded via a two-electrode voltage clamp (OC-725C oocyte clamp, Warner Instruments, Hamden, CT) at a holding potential of −80 mV. Data were acquired by using a Digidata 1440 A and were analyzed by pCLAMP 10.2 software (Axon Instruments Inc., Union City, CA).
(§4) Stock solutions of each odorant were prepared at 1 M using DMSO as a solvent, and each odorant was diluted in 1× Ringer’s solution to the indicated concentrations for electrophysiological recording. For functional screening of each HarmOR, a panel of 67 odorants belonging to three types of chemical classes: terpenes, aromatics, and aliphatics (short-chain fatty acid) were used (supplementary table S1, Supplementary Material online). For functional studies of OR42 orthologs from different species, six odorants including PAA, benzaldehyde, (E)-2-hexen-1-al, cinnamaldehyde, 2-phenylethanol, and heptanal were used.

HarmOR42 = HarmOR42 (Helicoverpa armigera, UniProt A0A7T3KAF6); assay: Xenopus oocyte two-electrode voltage clamp, HarmOR42 + Orco; type: cell-based; conditions: 67 odorants at 10^−4 M
Text: In preliminary screening, we used a high dosage (10^−4 M) of odorants. […] Most functional ORs responded robustly to multiple odorants. The strongest response (up to ∼6,000 nanoampere, nA) we detected was that of HarmOR42 toward the aromatic compound PAA. Further, the response profiles of the 28 HarmORs appeared to be highly differentiated, with no apparent overlap in their tuning spectra (with the exception of HarmOR12 and 36) according to functional cluster analysis (fig. 1A).
as §2, §3, §4

EsemOR19 = assay: Xenopus oocyte voltage clamp of EsemOR19; type: cell-based, Eriocrania semipurpurella; conditions: 10^−4 M
Text: We also examined the response profile of EsemOR19 from E. semipurpurella, an OR that falls close to the HarmOR42-defined clade but that is not considered as a HarmOR42 ortholog. […] We also characterized the function of RnubOR13 from R. nubila (Trichoptera), a species from a sister order of Lepidoptera. […] Unfortunately, the putative E. semipurpurella OR that would consist of EsemOR34 + 35 and that falls at the base of the HarmOR42 clade could not be tested as it is incomplete.
Full-length coding sequences of 45 ORs (including Orco) of H. armigera, and OR42 and Orco orthologs in B. mori, H. assulta, G. molesta, and M. separate were amplified from the antennal cDNA of each species adults by PCR with specific primer pairs of each gene. […]
as §1

HarmOR27 = target: T1, HarmOR27 (Helicoverpa armigera, UniProt A0A7T3KAG1); assay: Xenopus oocyte two-electrode voltage clamp, HarmOR27 + Orco; type: cell-based
T1 sequence (A0A7T3KAG1 1-426): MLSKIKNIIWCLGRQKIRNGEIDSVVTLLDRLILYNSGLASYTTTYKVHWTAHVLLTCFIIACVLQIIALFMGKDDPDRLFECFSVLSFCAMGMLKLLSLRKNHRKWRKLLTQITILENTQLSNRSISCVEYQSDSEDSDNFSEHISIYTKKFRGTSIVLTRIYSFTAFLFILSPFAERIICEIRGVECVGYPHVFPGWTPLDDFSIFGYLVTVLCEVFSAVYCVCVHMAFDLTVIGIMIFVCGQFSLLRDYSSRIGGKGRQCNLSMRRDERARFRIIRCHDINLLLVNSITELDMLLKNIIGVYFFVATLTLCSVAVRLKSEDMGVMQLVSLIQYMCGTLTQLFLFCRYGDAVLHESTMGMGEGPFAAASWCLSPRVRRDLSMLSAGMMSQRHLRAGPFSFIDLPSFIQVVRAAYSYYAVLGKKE
Protocol: as §2, §3, §4

HarmOR31 = HarmOR31 (Helicoverpa armigera, UniProt A0A7T3N2E9); assay: Xenopus oocyte two-electrode voltage clamp, HarmOR31 + Orco; type: cell-based
Text: In order to expand our analysis on the response properties of HarmORs, we conducted dose–response analyses for the 28 functional HarmORs. […] Many of these terpenes have been proposed to be defensive chemicals of plants.
Briefly, the full-length gene of each OR and Orco were subcloned into the eukaryotic expression vector pT7TS. cRNAs were generated from linearized expression vectors using the mMESSAGE mMACHINE T7 kit (Ambion, Austin, TX). […] The respective Orcos of different species were used for functional studies of OR42 orthologs except for the four butterfly species (V. tameamea, P. xuthus, D. plexippus, and P. rapae), in which we used the Orco from P. xuthus.
as §4

HarmOR19 = target: T2, HarmOR19 (Helicoverpa armigera, UniProt A0A7T3N0J7); assay: Xenopus oocyte two-electrode voltage clamp, HarmOR19 + Orco; type: cell-based; conditions: dose response in oocytes, unit M
T2 sequence (A0A7T3N0J7 1-402): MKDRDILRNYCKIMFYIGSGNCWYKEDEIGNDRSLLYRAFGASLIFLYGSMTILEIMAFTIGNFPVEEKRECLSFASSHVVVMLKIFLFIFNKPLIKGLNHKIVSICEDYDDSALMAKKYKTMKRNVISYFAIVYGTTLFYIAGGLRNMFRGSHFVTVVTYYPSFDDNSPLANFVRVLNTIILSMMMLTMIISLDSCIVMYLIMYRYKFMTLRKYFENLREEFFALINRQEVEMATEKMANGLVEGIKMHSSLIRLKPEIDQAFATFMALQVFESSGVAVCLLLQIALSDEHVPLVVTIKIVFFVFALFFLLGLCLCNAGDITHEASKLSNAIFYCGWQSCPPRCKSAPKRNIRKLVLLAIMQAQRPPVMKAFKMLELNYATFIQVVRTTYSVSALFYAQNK
Protocol: as §2
as §3, with “CA). […]” for “CA).”

HarmOR67 = HarmOR67 (Helicoverpa armigera, UniProt A0A7T3KAH1); assay: Xenopus oocyte two-electrode voltage clamp, HarmOR67 + Orco; type: cell-based; conditions: dose response in oocytes, unit M
Protocol: as §2
as §3, with “CA). […]” for “CA).”

HarmOR29 = HarmOR29 (Helicoverpa armigera, UniProt A0A7T3KAG0); assay: Xenopus oocyte two-electrode voltage clamp, HarmOR29 + Orco; type: cell-based; conditions: dose response in oocytes, unit M
Protocol: as §2, §1

HarmOR43 = target: T3, HarmOR43 (Helicoverpa armigera, UniProt A0A7T3KAF8); assay: Xenopus oocyte two-electrode voltage clamp, HarmOR43 + Orco; type: cell-based; conditions: dose response in oocytes, unit M
T3 sequence (A0A7T3KAF8 1-415): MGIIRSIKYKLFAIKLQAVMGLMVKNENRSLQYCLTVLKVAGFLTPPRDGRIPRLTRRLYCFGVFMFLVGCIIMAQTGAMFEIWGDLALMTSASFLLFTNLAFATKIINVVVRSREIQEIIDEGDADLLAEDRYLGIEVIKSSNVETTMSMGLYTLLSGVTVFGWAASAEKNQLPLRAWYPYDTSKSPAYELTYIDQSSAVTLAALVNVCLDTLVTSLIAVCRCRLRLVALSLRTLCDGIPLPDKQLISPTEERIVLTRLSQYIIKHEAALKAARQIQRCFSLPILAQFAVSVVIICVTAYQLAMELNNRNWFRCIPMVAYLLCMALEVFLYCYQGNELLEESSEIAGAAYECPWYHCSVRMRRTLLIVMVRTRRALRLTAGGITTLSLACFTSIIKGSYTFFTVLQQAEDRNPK
Protocol: as §2
as §3, with “CA). […]” for “CA).”

Chain of HarmOR42 (A0A7T3KAF6 entry or part of it): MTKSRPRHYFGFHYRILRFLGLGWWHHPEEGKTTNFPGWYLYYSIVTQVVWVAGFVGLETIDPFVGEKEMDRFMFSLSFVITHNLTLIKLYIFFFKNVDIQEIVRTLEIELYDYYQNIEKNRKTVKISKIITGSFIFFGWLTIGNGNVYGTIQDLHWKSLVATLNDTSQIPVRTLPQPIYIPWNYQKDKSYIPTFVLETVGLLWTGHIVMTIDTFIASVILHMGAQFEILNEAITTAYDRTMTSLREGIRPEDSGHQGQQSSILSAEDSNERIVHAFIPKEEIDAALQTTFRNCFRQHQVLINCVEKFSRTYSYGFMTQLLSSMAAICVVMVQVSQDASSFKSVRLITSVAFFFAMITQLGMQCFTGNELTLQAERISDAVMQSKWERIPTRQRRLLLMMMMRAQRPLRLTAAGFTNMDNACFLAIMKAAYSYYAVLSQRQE
Chain of HarmOR31 (A0A7T3N2E9 entry or part of it): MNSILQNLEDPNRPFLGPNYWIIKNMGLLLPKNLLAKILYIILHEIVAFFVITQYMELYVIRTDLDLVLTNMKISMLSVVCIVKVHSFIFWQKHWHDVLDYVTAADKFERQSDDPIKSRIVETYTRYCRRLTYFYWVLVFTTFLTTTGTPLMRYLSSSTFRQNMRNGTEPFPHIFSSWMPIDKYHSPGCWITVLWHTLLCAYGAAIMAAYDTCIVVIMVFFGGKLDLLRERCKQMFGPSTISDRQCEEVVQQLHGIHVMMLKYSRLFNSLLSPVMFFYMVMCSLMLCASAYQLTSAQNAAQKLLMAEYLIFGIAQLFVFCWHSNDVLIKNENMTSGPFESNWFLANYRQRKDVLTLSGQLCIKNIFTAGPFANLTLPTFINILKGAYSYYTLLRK
Chain of HarmOR29 (A0A7T3KAG0 1-395): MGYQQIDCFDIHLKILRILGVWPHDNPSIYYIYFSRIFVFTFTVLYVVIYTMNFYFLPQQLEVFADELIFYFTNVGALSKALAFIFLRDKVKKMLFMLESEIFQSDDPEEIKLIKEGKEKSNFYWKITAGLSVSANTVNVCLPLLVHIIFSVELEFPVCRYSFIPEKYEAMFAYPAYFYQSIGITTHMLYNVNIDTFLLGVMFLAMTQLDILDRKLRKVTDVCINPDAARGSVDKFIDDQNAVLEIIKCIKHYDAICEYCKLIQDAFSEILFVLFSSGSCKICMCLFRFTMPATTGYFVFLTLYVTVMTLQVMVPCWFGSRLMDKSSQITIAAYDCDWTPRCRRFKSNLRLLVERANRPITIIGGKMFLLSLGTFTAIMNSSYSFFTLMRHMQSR
Chain of HarmOR67 (A0A7T3KAH1 entry or part of it): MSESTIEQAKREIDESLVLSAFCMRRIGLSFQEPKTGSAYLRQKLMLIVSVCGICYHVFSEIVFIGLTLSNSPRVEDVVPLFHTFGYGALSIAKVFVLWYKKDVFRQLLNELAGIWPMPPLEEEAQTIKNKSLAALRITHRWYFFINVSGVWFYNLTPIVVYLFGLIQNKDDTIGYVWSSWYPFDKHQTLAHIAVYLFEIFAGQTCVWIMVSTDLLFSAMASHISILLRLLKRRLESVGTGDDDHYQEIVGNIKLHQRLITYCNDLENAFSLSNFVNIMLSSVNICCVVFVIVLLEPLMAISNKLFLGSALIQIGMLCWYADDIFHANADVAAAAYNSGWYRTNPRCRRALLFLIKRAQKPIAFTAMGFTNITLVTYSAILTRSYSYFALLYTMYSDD
Chain of HarmOR59 (A0A7T3KAU6 entry or part of it): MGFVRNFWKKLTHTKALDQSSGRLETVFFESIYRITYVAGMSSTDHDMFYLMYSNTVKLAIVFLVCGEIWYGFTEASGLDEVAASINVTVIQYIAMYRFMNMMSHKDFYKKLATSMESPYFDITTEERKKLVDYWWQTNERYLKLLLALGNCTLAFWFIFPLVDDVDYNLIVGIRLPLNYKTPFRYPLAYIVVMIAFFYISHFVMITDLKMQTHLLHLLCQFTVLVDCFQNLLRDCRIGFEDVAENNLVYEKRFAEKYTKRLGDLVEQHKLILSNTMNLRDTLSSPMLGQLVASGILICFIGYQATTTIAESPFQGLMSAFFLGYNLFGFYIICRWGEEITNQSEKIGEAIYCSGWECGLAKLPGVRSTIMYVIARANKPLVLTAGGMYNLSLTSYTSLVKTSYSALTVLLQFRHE

| SMILES | EAG response of HarmOR42 knock-out mutants compared with wild-type moths [1] | ligand tuning of HarmOR42 (HarmOR42) | EC50 (HarmOR27) | EC50 (HarmOR43) | also measured |
| --- | --- | --- | --- | --- | --- |
| O=C/C=C/c1ccccc1 [Cinnamaldehyde] | significantly decreased | minor ligands |  |  | ligand tuning of HarmOR42 orthologs [2]: minor ligands; EC50 (HarmOR59): 1.72 µM; response of EsemOR19 (EsemOR19): very weak current; also recorded: responded |
| CCOC(=O)c1ccccc1 [Ethyl benzoate] |  |  | 68.7 µM |  | EC50 (HarmOR31): 13.2 µM; EC50 (HarmOR19): 60.2 µM |
| CCCCCCC=O [Heptanal] | significantly decreased | minor ligands |  |  | EC50 (HarmOR67): 302 µM |
| COC(=O)c1ccc(O)cc1 [Methyl 4-hydroxybenzoate] |  |  |  | 19.6 µM | EC50 (HarmOR29): 178 µM |
| COC(=O)c1ccccc1 [Methyl benzoate] |  |  | 13.1 µM | 15.5 µM |  |
| COC(=O)c1ccccc1O [Methyl salicylate] |  |  | 15.6 µM | 15.8 µM |  |
